The results in this text go back to patent publication US20110301200A1, “THYROID RECEPTOR LIGANDS” (CADILA HEALTHCARE LIMITED, priority 2008, published 2011).

For one series, the target named is T1, TR-α (Homo sapiens, UniProt P10827).
T1 sequence (P10827 1-410 isoform P10827-2): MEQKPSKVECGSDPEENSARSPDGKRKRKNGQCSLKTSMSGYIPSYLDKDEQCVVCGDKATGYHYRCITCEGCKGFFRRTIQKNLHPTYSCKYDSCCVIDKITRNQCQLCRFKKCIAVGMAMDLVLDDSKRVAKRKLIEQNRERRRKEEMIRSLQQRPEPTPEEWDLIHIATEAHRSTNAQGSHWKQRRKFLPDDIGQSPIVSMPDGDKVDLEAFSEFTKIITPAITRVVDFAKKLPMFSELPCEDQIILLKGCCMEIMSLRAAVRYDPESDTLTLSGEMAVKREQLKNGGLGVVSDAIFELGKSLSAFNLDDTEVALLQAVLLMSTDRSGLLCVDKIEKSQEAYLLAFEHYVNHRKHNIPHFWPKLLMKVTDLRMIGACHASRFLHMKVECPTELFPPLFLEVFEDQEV
The series can be described thus: In vitro TR-α activity (in-house protocol). Format: cell-based. As to conditions: for fold induction at 0.001 µM: Conc. 1 nM; for fold induction at 0.001 µM / fold induction at 0.01 µM / fold induction at 0.1 µM / fold induction at 1 µM: read-out: TR-α Fold Induction w.r.t T3(100 nm); for fold induction at 0.01 µM: Conc. 10 nM; for fold induction at 0.1 µM: Conc. 100 nM; for fold induction at 1 µM: Conc. 1000 nM. On the procedure: (§1) In vitro TR-α & TR-β activities were determined as per in-house protocols and the results of representative compounds are provided in tables 1 & 2 below as a proof of the efficacies of the novel class of compounds disclosed above.

The target in the next series is T2, TR-β (Homo sapiens, UniProt P10828).
T2 sequence (P10828 1-461): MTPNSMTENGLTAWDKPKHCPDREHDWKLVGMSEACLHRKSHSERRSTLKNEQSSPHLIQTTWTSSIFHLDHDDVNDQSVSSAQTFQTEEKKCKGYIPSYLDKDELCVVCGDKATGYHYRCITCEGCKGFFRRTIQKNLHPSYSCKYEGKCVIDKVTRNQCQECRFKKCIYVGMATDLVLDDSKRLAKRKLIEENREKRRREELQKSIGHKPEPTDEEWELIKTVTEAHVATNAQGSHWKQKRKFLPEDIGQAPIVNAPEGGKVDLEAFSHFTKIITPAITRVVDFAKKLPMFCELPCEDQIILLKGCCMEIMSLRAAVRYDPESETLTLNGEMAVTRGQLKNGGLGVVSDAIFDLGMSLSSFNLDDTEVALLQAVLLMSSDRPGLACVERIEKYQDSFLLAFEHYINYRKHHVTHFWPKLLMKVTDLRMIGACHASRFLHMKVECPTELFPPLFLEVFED
The series can be described thus: In vitro TR-β activity (in-house protocol). Type of series: cell-based. Particulars: for fold induction at 0.001 µM: Conc. 1 nM; for fold induction at 0.001 µM / fold induction at 0.01 µM / fold induction at 0.1 µM / fold induction at 1 µM: read-out: TR-β Fold Induction w.r.t T3(100 nm); for fold induction at 0.01 µM: Conc. 10 nM; for fold induction at 0.1 µM: Conc. 100 nM; for fold induction at 1 µM: Conc. 1000 nM. On the procedure: as §1

The subject of the next series is cholesterol-fed rats. Kind of series: Cholesterol lowering and change in heart rate in cholesterol-fed rats. Format: in vivo, rat. Particulars: treated for 7 days. On the procedure: Cholesterol lowering effect of T3 and selected compounds disclosed in the present invention on cholesterol lowering and change in heart rate in cholesterol-fed rats (treated for 7 days) was determined according to the general protocol described in PNAS, vol. […] Therefore, these compounds have the potential to be further developed as selective TR-beta agonists for the treatment of human & other animals in need of such treatment.

pEC50: −log10 of the molar value.

On to `CCC(C)c1cc(Oc2c(Br)cc(C=NOC(C)(C)C(=O)O)cc2Br)ccc1O` (stereo not drawn) [Example 15, 2-(((3,5-dibromo-4-(3-(sec-butyl)-4-hydroxyphenoxy)benzylidene)amino)oxy)-2-methyl propanoic acid], for which, on TR-α, the fold induction at 0.001 µM turned out to be 35.7, the fold induction at 0.01 µM was 77.7, the fold induction at 0.1 µM stood at 119 and the fold induction at 1 µM is 123. For the same compound, at TR-β, the fold induction at 0.001 µM was 23, the fold induction at 0.01 µM came to 84.3, the fold induction at 0.1 µM was found to be 118 and the fold induction at 1 µM turned out to be 72.3.
Regarding `CCC(ON=Cc1cc(Br)c(Oc2ccc(O)c(Cc3ccccc3)c2)c(Br)c1)C(=O)O` (stereo not drawn) [Example 17, 2-(((4-(3-benzyl-4-hydroxyphenoxy)-3,5-dibromobenzylidene)amino)oxy)butanoic acid], at TR-α, the fold induction at 0.001 µM stood at 21.6, the fold induction at 0.01 µM worked out at 38.5, the fold induction at 0.1 µM was determined as 66.2 and the fold induction at 1 µM was found to be 109. At TR-β, the fold induction at 0.001 µM turned out to be 21.2, the fold induction at 0.01 µM turned out to be 31.3, the fold induction at 0.1 µM worked out at 81.5 and the fold induction at 1 µM turned out to be 85.6.
Regarding `CC(C)c1cc(Oc2c(Br)cc(C=NOCC(=O)O)cc2Br)ccc1O` [Example 3, 2-(((3,5-dibromo-4-(4-hydroxy-3-isopropylphenoxy)benzylidene)amino)oxy)acetic acid], at TR-α, the fold induction at 0.001 µM stood at 18.3, the fold induction at 0.01 µM was 38.5, the fold induction at 0.1 µM was 93.8 and the fold induction at 1 µM was determined as 133. Besides, on TR-β, the fold induction at 0.001 µM was 17.7, the fold induction at 0.01 µM was determined as 49.5, the fold induction at 0.1 µM turned out to be 92.1 and the fold induction at 1 µM was 138. In the series on cholesterol-fed rats (oral 0.5 mg/kg), the “% Change in Heart Rate” value worked out at 4.2% and the “% Change in Total Cholesterol” value is −68%.
What is called pEC50 is the negative decadic logarithm of the EC50, by convention in mol/L. Low readings indicate a large EC50, high ones a small EC50. Consider `CC(ON=Cc1cc(Br)c(Oc2ccc(O)c(C(=O)c3cccc(Cl)c3)c2)c(Br)c1)C(=O)O` (stereo not drawn) [Example 30, 2-(((3,5-dibromo-4-(3-(3-chlorobenzoyl)-4-hydroxyphenoxy)benzylidene)amino)oxy)propanoic acid], for which the pEC50 is 6.84 on TR-α and 6.78 on TR-β.
`CC(ON=Cc1cc(Br)c(Oc2ccc(O)c(S(=O)(=O)N3CCCCC3)c2)c(Br)c1)C(=O)O` (stereo not drawn) [Example 36, 2-(((3,5-dibromo-4-(4-hydroxy-3-(piperidin-1-ylsulfonyl)phenoxy)benzylidene)amino)oxy)propanoic acid]: on TR-α, the fold induction at 0.001 µM came to 14.1, the fold induction at 0.01 µM came out at 15.4, the fold induction at 0.1 µM is 57.8 and the fold induction at 1 µM was 128. Moreover, on TR-β, the fold induction at 0.001 µM is 11, the fold induction at 0.01 µM amounted to 19.7, the fold induction at 0.1 µM turned out to be 58.2 and the fold induction at 1 µM was found to be 107.
Consider `O=C(O)CON=Cc1cc(Br)c(Oc2ccc(O)c(C(O)c3cccc(Cl)c3)c2)c(Br)c1` (stereo not drawn) [Example 35, 2-(((3,5-dibromo-4-(3-((3-chlorophenyl)(hydroxy)methyl)-4-hydroxyphenoxy)benzylidene)amino)oxy)acetic acid], for which the pEC50 on TR-α is 5.68; on TR-β, 5.31.
With `CCC(ON=Cc1cc(Br)c(Oc2ccc(O)c(C(C)C)c2)c(Br)c1)C(=O)O` (stereo not drawn) [Example 13, 2-(((3,5-dibromo-4-(4-hydroxy-3-isopropylphenoxy)benzylidene)amino)oxy)butanoic acid], on TR-α, the fold induction at 0.001 µM worked out at 29.6, the fold induction at 0.01 µM amounted to 63.9, the fold induction at 0.1 µM turned out to be 76.8 and the fold induction at 1 µM turned out to be 56.9. At TR-β, the fold induction at 0.001 µM is 23.1, the fold induction at 0.01 µM was 73.4, the fold induction at 0.1 µM was 86.7 and the fold induction at 1 µM worked out at 94.6.
Consider `N[C@@H](Cc1cc(I)c(Oc2ccc(O)c(I)c2)c(I)c1)C(=O)O` [Example T3, reference compound], for which, in the series on cholesterol-fed rats (oral 13 μg/kg), the “% Change in Heart Rate” value stood at 14% and the “% Change in Total Cholesterol” value is −46%.
As for `CC(C)(ON=Cc1cc(Br)c(Oc2ccc(O)c(-c3ccccc3)c2)c(Br)c1)C(=O)O` [Example 20, 2-(((3,5-dibromo-4-((6-hydroxy-[1,1′-biphenyl]-3-yl)oxy)benzylidene)amino)oxy)-2-methyl propanoic acid], at TR-α, the fold induction at 0.001 µM came to 9.45, the fold induction at 0.01 µM came out at 13.1, the fold induction at 0.1 µM came out at 34.5 and the fold induction at 1 µM stood at 74.3. In addition, at TR-β, the fold induction at 0.001 µM was determined as 8.98, the fold induction at 0.01 µM was 14.8, the fold induction at 0.1 µM amounted to 46 and the fold induction at 1 µM amounted to 98.6.
For `CC(ON=Cc1cc(Br)c(Oc2ccc(O)c(C(C)(C)C)c2)c(Br)c1)C(=O)O` (stereo not drawn) [Example 24, 2-(((3,5-dibromo-4-(3-(tert-butyl)-4-hydroxyphenoxy)benzylidene)amino)oxy)propanoic acid], on TR-α, the fold induction at 0.001 µM amounted to 18.5, the fold induction at 0.01 µM amounted to 52.1, the fold induction at 0.1 µM is 102 and the fold induction at 1 µM was 121. Besides, at TR-β, the fold induction at 0.001 µM was 16.6, the fold induction at 0.01 µM was 48.9, the fold induction at 0.1 µM was determined as 105 and the fold induction at 1 µM is 86.1.
For `CCC(C)c1cc(Oc2c(Cl)cc(C=NOC(C)C(=O)O)cc2Cl)ccc1O` (stereo not drawn) [Example 23, 2-(((4-(3-(sec-butyl)-4-hydroxyphenoxy)-3,5-dichlorobenzylidene)amino)oxy)propanoic acid], on TR-α, the fold induction at 0.001 µM is 22.6, the fold induction at 0.01 µM stood at 48.2, the fold induction at 0.1 µM turned out to be 92.2 and the fold induction at 1 µM was found to be 138. Moreover, at TR-β, the fold induction at 0.001 µM was 19.2, the fold induction at 0.01 µM stood at 53.1, the fold induction at 0.1 µM was 78.9 and the fold induction at 1 µM is 90.
With `CCC(ON=Cc1cc(Br)c(Oc2ccc(O)c(C(C)CC)c2)c(Br)c1)C(=O)O` (stereo not drawn) [Example 19, 2-(((3,5-dibromo-4-(3-(sec-butyl)-4-hydroxyphenoxy)benzylidene)amino)oxy)butanoic acid], on TR-α, the fold induction at 0.001 µM worked out at 34.4, the fold induction at 0.01 µM came to 80.8, the fold induction at 0.1 µM was found to be 64.2 and the fold induction at 1 µM stood at 109. Further, at TR-β, the fold induction at 0.001 µM amounted to 20.2, the fold induction at 0.01 µM was found to be 69.7, the fold induction at 0.1 µM was found to be 86.2 and the fold induction at 1 µM is 90.8.
With `O=C(O)CON=Cc1cc(Br)c(Oc2ccc(O)c(Cc3ccccc3)c2)c(Br)c1` [Example 9, 2-(((4-(3-benzyl-4-hydroxyphenoxy)-3,5-dibromobenzylidene)amino)oxy)acetic acid], at TR-α, the fold induction at 0.001 µM stood at 10.7, the fold induction at 0.01 µM turned out to be 10.7, the fold induction at 0.1 µM amounted to 23.8 and the fold induction at 1 µM was determined as 64.8. At TR-β, the fold induction at 0.001 µM stood at 11.5, the fold induction at 0.01 µM turned out to be 17.6, the fold induction at 0.1 µM was 60.2 and the fold induction at 1 µM was found to be 98.8.
Take `CC(C)c1cc(Oc2c(Br)cc(C=NOC(C)(C)C(=O)O)cc2Br)ccc1O` [Example 12, 2-(((3,5-dibromo-4-(4-hydroxy-3-isopropylphenoxy)benzylidene)amino)oxy)-2-methylpropanoic acid]: on TR-α, the fold induction at 0.001 µM is 24, the fold induction at 0.01 µM worked out at 59.9, the fold induction at 0.1 µM is 88.7 and the fold induction at 1 µM is 110. Also, on TR-β, the fold induction at 0.001 µM was determined as 39, the fold induction at 0.01 µM turned out to be 65.4, the fold induction at 0.1 µM was found to be 119 and the fold induction at 1 µM turned out to be 67.4.
